Test results: US20200032249A1, “LABELING, ISOLATION, & ANALYSIS OF RNA FROM RARE CELL POPULATIONS” (priority 2017, published 2020)

Legend:
MDA-MB-231 cells = assay: co-culture of CD-expressing MDA231 cells with unlabeled control cells, anti-BrdU immunostaining; assay type: cell-based, human; details: CD only, without UPRT and thymine
Description: FIG. 1a-f. Labeling and purification of RNA by CD expression and 5-FC treatment. FIG. 1a—Schematic diagram showing RNA labeling using CD and 5-FC. FIG. 1b—Chemical reactions steps involved in the labeling of RNA using CD and 5-FC. The dotted arrow indicates the intermediary steps that are not shown. FIG. 1c Relative fold enrichment of mRNA isolated by Flura-tagging. 293T cells expressing CD or unlabeled controls were treated with 5-FC for the indicated times, labeled mRNAs were immunopurified using anti-BrdU antibody, and the levels of labeled mRNAs of the indicated genes relative to corresponding non-immunoprecipitated inputs normalized to immunopurified mRNAs from cells not expressing CD were quantified by RT-PCR. […] FIG. 1d—Schematic diagram of the constructs used for inducible expression of UPRT and/or CD, and the experimental design. Transduced RFP+MDA231 cells were mixed with unlabeled cells, treated with doxycycline for 24 h and then 5-FC for 4-12 h. Cells were analyzed by immunofluorescence or harvested for RNA analysis. FIG. 1e—Flura-tagging in MDA231 cells in vitro. […] The fold enrichment of the indicated representative human genes over mouse housekeeping genes (mHPRT1 and mLDH1) was measured by RT-PCR (n=3±S.E.). […]
Next, we determined whether 5-FU-labeled mRNAs can be specifically and efficiently isolated by immunoprecipitation. […]

[1] = system: MDA231 cells expressing CD/UPRT; assay: Flura-tagged mRNA immunoprecipitation from MDA231 CD/UPRT cells co-cultured with mouse 4T1 cells, RT-PCR; assay type: cell-based, human; details: 12 h, 100-1000 MDA231 cells to 10^6 4T1 cells
Description: FIG. 1a-f. Labeling and purification of RNA by CD expression and 5-FC treatment. FIG. 1a—Schematic diagram showing RNA labeling using CD and 5-FC. FIG. 1b—Chemical reactions steps involved in the labeling of RNA using CD and 5-FC. The dotted arrow indicates the intermediary steps that are not shown. FIG. 1c Relative fold enrichment of mRNA isolated by Flura-tagging. 293T cells expressing CD or unlabeled controls were treated with 5-FC for the indicated times, labeled mRNAs were immunopurified using anti-BrdU antibody, and the levels of labeled mRNAs of the indicated genes relative to corresponding non-immunoprecipitated inputs normalized to immunopurified mRNAs from cells not expressing CD were quantified by RT-PCR. […] Cells were analyzed by immunofluorescence or harvested for RNA analysis. […] The fold enrichment of the indicated representative human genes over mouse housekeeping genes (mHPRT1 and mLDH1) was measured by RT-PCR (n=3±S.E.). […]
Next, we determined whether this system could be used to isolate RNA specifically from cells of interest that were admixed with a large proportion of other cells. […] After 12 h of 5-FC addition, 5-FU-labeled mRNAs were immunoprecipitated, and the proportion of human and mouse mRNA for representative housekeeping genes were determined by reverse transcriptase-polymerase chain reaction (RT-PCR). […]

Nc1nc(=O)[nH]cc1F [5-FC, 5-fluorocytosine]
5-FU-labeling of neighboring cells not expressing CD (MDA-MB-231 cells): led to 5-FU-labeling of cells that did not express CD as well
enrichment of human mRNAs compared to mouse mRNAs [1]: more than 10^5 fold
